# In US20150315188A1, “COMPOUNDS AND METHODS FOR TREATMENT OF HYPERTENSION” (MEDIVATION TECHNOLOGIES, INC., priority 2012, published 2015):
# Where two headings read alike, the source gives them in different places.
# Experiments:
# [1] = molecular target: T1, Human adrenergic α1B receptor (Homo sapiens, UniProt P35368); assay: Radioligand binding, adrenergic α1B (Protocol Group B); parameters: purchased Milipore (Millipore); details: Protocol Group B; for Percentage inhibition of ligand binding, Adrenergic α1B (0.1 μM) / inhibition at 0.1 µM: 0.1 μM compound; for Percentage inhibition of ligand binding, Adrenergic α1B (0.3 μM) / inhibition at 0.3 µM: 0.3 μM compound; for Ki: estimated Ki; for inhibition at 0.3 µM: read-out: Percentage inhibition of ligand binding, Adrenergic α1B (0.3 μM); for inhibition at 0.1 µM: read-out: Percentage inhibition of ligand binding, Adrenergic α1B (0.1 μM)
# T1 sequence (P35368 1-520): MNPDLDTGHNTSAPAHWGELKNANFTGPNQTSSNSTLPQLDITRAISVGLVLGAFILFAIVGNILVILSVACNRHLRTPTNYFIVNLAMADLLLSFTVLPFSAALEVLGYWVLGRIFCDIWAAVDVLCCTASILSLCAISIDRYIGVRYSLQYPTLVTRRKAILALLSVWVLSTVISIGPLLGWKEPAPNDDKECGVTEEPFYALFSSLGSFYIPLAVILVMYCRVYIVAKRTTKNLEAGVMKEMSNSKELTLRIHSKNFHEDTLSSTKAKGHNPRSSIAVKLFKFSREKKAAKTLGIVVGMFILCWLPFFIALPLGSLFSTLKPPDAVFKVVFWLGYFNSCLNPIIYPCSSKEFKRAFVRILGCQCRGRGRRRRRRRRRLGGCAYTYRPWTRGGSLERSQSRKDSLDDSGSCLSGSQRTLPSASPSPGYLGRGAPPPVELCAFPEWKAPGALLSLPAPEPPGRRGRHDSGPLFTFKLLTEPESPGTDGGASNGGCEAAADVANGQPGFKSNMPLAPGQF
# Procedure, shortened: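 Values are percent inhibition of specific [3H]prazosin (0.3 nM) binding or estimated Ki, from filtration counting. Human α1B recombinant membranes, Tris-HCl pH 7.4 buffer with MgCl2 and EDTA, 60 min at 25 °C, 1% DMSO vehicle; 10 μM prazosin defined nonspecific binding.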
# [2] = molecular target: T2, Human adrenergic α2B receptor (Homo sapiens, UniProt P18089); assay: β-Arrestin GPCR functional assay, adrenergic α2B (Protocol B); type: cell-based; details: β-arrestin, antagonist vs nor-epinephrine EC80
# T2 sequence (P18089 1-450): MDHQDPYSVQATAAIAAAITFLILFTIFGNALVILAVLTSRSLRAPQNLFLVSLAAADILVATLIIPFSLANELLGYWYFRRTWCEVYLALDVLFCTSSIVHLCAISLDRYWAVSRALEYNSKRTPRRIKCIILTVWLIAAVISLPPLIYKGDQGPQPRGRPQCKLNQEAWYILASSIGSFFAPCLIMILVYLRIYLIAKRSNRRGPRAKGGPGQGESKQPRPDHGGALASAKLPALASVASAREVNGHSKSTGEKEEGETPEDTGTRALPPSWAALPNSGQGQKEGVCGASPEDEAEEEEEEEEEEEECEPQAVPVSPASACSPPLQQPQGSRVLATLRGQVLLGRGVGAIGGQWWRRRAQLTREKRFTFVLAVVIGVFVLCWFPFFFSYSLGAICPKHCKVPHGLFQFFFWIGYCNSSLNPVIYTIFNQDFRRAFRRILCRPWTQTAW
# Method: To evaluate the activity of compounds in β-Arrestin GPCR functional assays, recombinant CHO cell line (DiscoveRX), over expressed with human adrenergic α2B receptor were used. The experiment was done with kit of DiscoveRX as per recommended protocol of the supplier. Cells were harvested from culture flask using cell dissociation solution (CDS) and plated at a density of 12,000 cells/well in CP reagent (supplied with the kit) in a half area 96-well white polystyrene plate. After 24 h incubation at 37° C., compounds at various concentrations in 1% (final) DMSO were charged to the cells for 30 min at 37° C. Active nor-epinephrine (-NE) at its EC80 concentrations (50 nM) were then added to the cells and incubated for another 90 min at 37° C. Detection mix was prepared by mixing of Path Hunter cell assay buffer, Emerald II solution and Galactone star solution in a ratio of 19:5:1 and incubated with the cells for 60 min at RT in the dark. The reading was taken in Envision at luminescence mode. Biochemical assay results are presented as the percent Inhibition in Table B2a, or IC50 values in Table B2b.
# [3] = molecular target: T3, Human adrenergic α2A receptor (Homo sapiens, UniProt P08913); assay: Radioligand binding, adrenergic α2A (Protocol Group B); parameters: purchased Milipore (Millipore); details: Protocol Group B; for Percentage inhibition of ligand binding, Adrenergic α2A (0.1 μM) / inhibition at 0.1 µM: 0.1 μM compound; for Percentage inhibition of ligand binding, Adrenergic α2A (0.3 μM) / inhibition at 0.3 µM: 0.3 μM compound; for Ki: estimated Ki; for inhibition at 0.1 µM: read-out: Percentage inhibition of ligand binding, Adrenergic α2A (0.1 μM); for inhibition at 0.3 µM: read-out: Percentage inhibition of ligand binding, Adrenergic α2A (0.3 μM)
# T3 sequence (P08913 1-465): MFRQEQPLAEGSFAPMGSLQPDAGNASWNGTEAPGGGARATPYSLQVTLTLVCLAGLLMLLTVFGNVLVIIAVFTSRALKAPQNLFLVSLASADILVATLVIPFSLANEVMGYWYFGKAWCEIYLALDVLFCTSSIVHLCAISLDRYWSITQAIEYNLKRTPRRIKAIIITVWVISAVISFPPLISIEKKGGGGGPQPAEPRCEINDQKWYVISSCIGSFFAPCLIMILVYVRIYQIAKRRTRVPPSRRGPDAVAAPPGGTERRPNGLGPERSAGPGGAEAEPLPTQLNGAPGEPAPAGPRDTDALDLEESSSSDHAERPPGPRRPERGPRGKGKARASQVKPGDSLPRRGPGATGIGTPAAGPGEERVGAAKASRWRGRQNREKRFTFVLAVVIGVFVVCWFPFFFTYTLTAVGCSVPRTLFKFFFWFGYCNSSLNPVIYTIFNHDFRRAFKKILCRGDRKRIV
# Procedure, shortened: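 Compounds (1% DMSO vehicle, various concentrations) competed against 2 nM [^3H]MK-912 on recombinant receptor membranes for 60 min at 25° C, Tris-HCl pH 7.4 buffer with Mg2+, Ca2+, BSA. Bound radioligand filtered and counted; 10 μM rauwolscine set nonspecific binding. Values: percent inhibition of specific binding or estimated Ki.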
# [4] = molecular target: T2, Human adrenergic α2B receptor; assay: Radioligand binding, adrenergic α2B (Protocol Group B); parameters: purchased Milipore (Millipore); details: Protocol Group B; for Percentage inhibition of ligand binding, Adrenergic α2B (10 nM): 0.01 µM; for Ki: estimated Ki
# Procedure, shortened: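 Compounds at various concentrations in 1% DMSO were tested on recombinant membranes in Tris-HCl pH 7.4 buffer containing MgCl2, CaCl2 and 0.2% BSA.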
# [5] = 10 nM compound, read-out: Percentage inhibition of ligand binding, Adrenergic α2B (10 nM)
# [6] = 30 nM compound, read-out: Percentage inhibition of ligand binding, Adrenergic α2B (30 nM)
# [7] = 0.1 μM compound, read-out: Percentage inhibition of ligand binding, Adrenergic α2B (0.1 μM)
"Percentage inhibition of ligand binding, Adrenergic α1B (0.1 μM) [1]","Percentage inhibition of ligand binding, Adrenergic α1B (0.3 μM) [1]",IC50 ([2]; read-out: IC50 Adrenergic α2B),"Percentage inhibition of ligand binding, Adrenergic α2A (0.1 μM) [3]","Percentage inhibition of ligand binding, Adrenergic α2A (0.3 μM) [3]","Percentage inhibition of ligand binding, Adrenergic α2B (10 nM) ([4]; 10 nM compound)",Ki ([4]; read-out: Ki α2B),inhibition at 0.3 µM [1],"inhibition at 0.01 µM [4, 5]","inhibition at 0.03 µM [4, 6]",inhibition at 0.1 µM [1],inhibition at 0.1 µM [3],inhibition at 0.3 µM [3],Compound,other results
5%,17%,212 nM,25%,45%,65%,3.49 nM,–,–,–,–,–,–,"Cc1ccc2c(c1)c1c(n2CC(OC2CCCC2)c2ccncc2)CCN(C)C1 (single isomer, unassigned) [35b]","Ki [1]: 456 nM; Ki [3]: 241 nM; Percentage inhibition of ligand binding, Adrenergic α2B (30 nM) ([4]; 30 nM compound): 86%; Percentage inhibition of ligand binding, Adrenergic α2B (0.1 μM) ([4]; 0.1 μM compound): 96%"
15%,–,388 nM,52%,72%,–,1.45 nM,43%,86%,93%,–,–,–,"CC(O)(Cn1c2c(c3cc(F)cc(Cl)c31)C1CCCN1CC2)c1ccncc1 (single isomer, unassigned) [88a]",Ki [3]: 43.9 nM
−1%,33%,166 nM,19%,44%,70%,2.85 nM,–,–,–,–,–,–,"CC(O)(Cn1c2c(c3cc(F)cc(Cl)c31)C1CCCN1CC2)c1ccncc1 (single isomer, unassigned) [88b]","Percentage inhibition of ligand binding, Adrenergic α2B (30 nM) ([4]; 30 nM compound, 0.03 µM): 90%"
–,–,261 nM,–,–,–,4.55 nM,11%,51%,74%,6%,24%,30%,"Cc1cc(F)cc2c3c(n(CC(C)(O)c4cccnc4)c12)CC1CCCN1C3 (single isomer, unassigned) [76d]",–
16%,35%,284 nM,31%,53%,37%,23.8 nM,–,–,–,–,–,–,"Cc1ccc2c(c1F)c1c(n2CC(C)(O)c2cccnc2)CCN2CCCC12 (single isomer, unassigned) [87b]","Percentage inhibition of ligand binding, Adrenergic α2B (30 nM) ([4]; 30 nM compound, 0.03 µM): 66%"
–,–,692 nM,–,–,–,12.4 nM,14%,42%,71%,8%,8%,36%,"CC(O)(Cn1c2c(c3cc(Cl)cc(F)c31)CN1CCCC1C2)c1cccnc1 (single isomer, unassigned) [63c]",–
–,–,313 nM,–,–,–,5.4 nM,15%,51%,77%,4%,2%,41%,"Cc1cc(F)c2c(c1)c1c(n2CC(C)(O)c2cccnc2)CC2CCCN2C1 (single isomer, unassigned) [61c]","inhibition at 0.1 µM [4, 7]: 92%"
–,–,396 nM,–,–,–,7.9 nM,26%,28%,54%,-1%,10%,37%,"Cc1ccc2c(c1)c1c(n2CC(C)(O)c2cnc3ccccc3c2)CCN(C)C1 (single isomer, unassigned) [32a]",–
24%,63%,68.3 nM,45%,72%,76%,2.45 nM,–,–,–,–,–,–,"Cc1cc(F)cc2c3c(n(CC(O)c4ccncc4)c12)CCN1CCCC31 (single isomer, unassigned) [136b]","Percentage inhibition of ligand binding, Adrenergic α2B (30 nM) ([4]; 30 nM compound, 0.03 µM): 96%"
15%,–,237 nM,16%,–,–,7.16 nM,33%,38%,72%,–,–,42%,"Cc1ccc2c(c1)c1c(n2CC(C)(O)c2cccnc2)CC2CCCN2C1 (single isomer, unassigned) [38b]","Ki [1]: 179 nM; Ki [3]: 291 nM; inhibition at 0.1 µM [4, 7]: 90%"

Compound,"Percentage inhibition of ligand binding, Adrenergic α1B (0.1 μM) [1]","Percentage inhibition of ligand binding, Adrenergic α1B (0.3 μM) [1]",IC50 ([2]; read-out: IC50 Adrenergic α2B),"Percentage inhibition of ligand binding, Adrenergic α2A (0.1 μM) [3]","Percentage inhibition of ligand binding, Adrenergic α2A (0.3 μM) [3]","Percentage inhibition of ligand binding, Adrenergic α2B (10 nM) ([4]; 10 nM compound)",Ki ([4]; read-out: Ki α2B),inhibition at 0.3 µM [1],"inhibition at 0.01 µM [4, 5]","inhibition at 0.03 µM [4, 6]",inhibition at 0.1 µM [1],inhibition at 0.1 µM [3],inhibition at 0.3 µM [3],other results
"Cc1ccc2c(c1)c1c(n2CC(C)(O)c2ccc(F)cc2)CC2CCC1N2C (single isomer, unassigned) [102b]",–,–,–,–,–,–,–,26%,–,–,5%,-1%,23%,"IC50 ([2]; IC50 Adrenergic α2B): 412 nM; Ki ([4]; Ki α2B): 19.3 nM; inhibition at 0.01 µM ([4]; read-out: Percentage inhibition of ligand binding, Adrenergic α2B (10 nM), 10 nM compound): 28%; inhibition at 0.03 µM ([4]; read-out: Percentage inhibition of ligand binding, Adrenergic α2B (30 nM), 30 nM compound): 56%; inhibition at 0.1 µM ([4]; read-out: Percentage inhibition of ligand binding, Adrenergic α2B (0.1 μM), 0.1 μM compound): 70%"
